According to ChEMBL document CHEMBL1126253, “Energy aspects of oil/water partition leading to the novel hydrophobic parameters for the analysis of quantitative structure-activity relationships” (J Med Chem, 1992):

Assays:
[1] = log (1/C') was determined; type: ADME
[2] = Partition coefficient (logD2.0); type: physicochemical; conditions: octanol/water
[3] = species: Rattus norvegicus; test: Concentration of the drug in the liver of rat; type: ADME, organism-based; conditions: in vivo
[4] = species: Rattus norvegicus; test: Concentration of the drug in the kidney of rat; type: ADME, organism-based; conditions: in vivo
[5] = system: Culicidae; test: Concentration required to kill 50% of the mosquito larva in 24 hr.; type: organism-based; conditions: in vivo

logD ([2]; pH 2, read-out: logD)	Log M [3]	Log M [4]	SMILES	Log 1/C [1]	further results
1.28	0.17	0.08	CN(C)c1ccc(C(=O)O)cc1	–	–
2.99	–	–	O=C(O)c1cccc(C(F)(F)F)c1	–	–
3.09	–	–	CCCOc1ccc(C(=O)O)cc1	–	–
3.63	–	–	CCCCc1ccc(C(=O)O)cc1	–	–
–	–	–	Cc1ccc(C(=O)O)cc1 [4-METHYLBENZOIC ACID]	–	logD [2]: 2.26
–	–	–	O=C(O)c1ccc(Br)cc1	1.19	Log LD50: -2.03; logD [2]: 2.81
1.98	1.34	1.35	COc1cccc(C(=O)O)c1	0.29	–
3.18	–	–	O=C(O)c1ccc(C(F)(F)F)cc1	–	–
1.03	–	–	NCc1ccc(C(=O)O)cc1 [AMINOMETHYLBENZOIC ACID]	–	–
–	1.28	1.44	O=C(O)c1ccccc1 [BENZOIC ACID]	–	–
–	–	–	O=C(O)c1ccccc1Cl	2.15	Log LD50 [5]: -1.62; logD [2]: 2.02
1.2	–	–	O=C(O)c1ccccc1[N+](=O)[O-]	1.54	–
–	0.73	1.23	O=C(O)c1cccc([N+](=O)[O-])c1	0.22	logD [2]: 1.69
–	–	–	O=C(O)c1ccc(I)cc1	0.99	Log LD50: -2.31; logD [2]: 3.05
1.52	–	–	O=C(O)c1ccccc1F	1.82	–
1.63	0.62	1.57	N#Cc1ccc(C(=O)O)cc1	–	–
2.27	–	–	Cc1ccccc1C(=O)O [TOLUIC ACID]	–	–

logD ([2]; pH 2, read-out: logD)	Log M [3]	Log M [4]	SMILES	Log 1/C [1]	further results
-0.79	0.76	1.45	Nc1cccc(C(=O)O)c1 [3-AMINOBENZOIC ACID]	-1	–
2.45	–	–	O=C(O)c1ccccc1I	1.19	–
–	–	–	O=C(O)c1ccc(Cl)c(Cl)c1	2.47	Log LD50: -2.28; logD [2]: 3.25
3.28	–	–	CC(C)c1ccc(C(=O)O)cc1	–	–
–	–	–	O=C(O)c1cccc(O)c1 [3-HYDROXYBENZOIC ACID]	-0.99	logD [2]: 1.55
2.14	–	–	O=C(O)c1ccccc1Br	1.9	–
0.22	0.2	0.45	CN(C)c1cccc(C(=O)O)c1	–	–
0.55	–	–	NS(=O)(=O)c1ccc(C(=O)O)cc1 [CARZENIDE]	–	–
–	–	–	O=C(O)c1cccc(I)c1	1.29	logD [2]: 3.13
3.42	–	–	CCCc1ccc(C(=O)O)cc1	–	–
1.76	–	–	O=Cc1ccc(C(=O)O)cc1	–	–
–	1.71	1.83	Cc1cccc(C(=O)O)c1	–	–
–	0.92	0.89	CCOc1ccc(C(=O)O)cc1	–	–
2.89	–	–	CCc1ccc(C(=O)O)cc1	–	–
–	–	–	O=C(O)c1cccc(Br)c1	1.71	logD [2]: 2.86
1.27	-0.08	-0.64	CC(=O)Nc1ccc(C(=O)O)cc1 [ACEDOBEN]	–	–
1.32	-0.29	-0.1	CC(=O)Nc1cccc(C(=O)O)c1	–	–

SMILES	logD ([2]; pH 2, read-out: logD)	Log M [3]	Log M [4]	Log 1/C [1]	further results
O=C(O)c1cc(Cl)ccc1Cl	2.82	–	–	1.63	Log LD50: -1.77
O=C(O)c1c(Cl)cccc1Cl	1.8	–	–	–	Log LD50: -1.22
O=C(O)c1ccc([N+](=O)[O-])cc1 [4-NITROBENZOIC ACID]	–	0.79	1.02	–	Log LD50: -1.52; logD [2]: 1.84
Nc1ccc(C(=O)O)cc1	0.76	0.59	0.79	-1.67	Log LD50: -1.54
O=C(O)c1cccc(Cl)c1	–	1.57	1.79	2.16	Log LD50: -2; logD [2]: 2.72
O=C(O)c1ccc(O)cc1 [PARABEN]	1.41	–	–	-1.69	Log LD50: -1.29
N#Cc1cccc(C(=O)O)c1	1.65	0.69	0.95	–	–
Nc1ccccc1C(=O)O [ANTHRANILIC ACID]	0.51	–	–	–	–
O=C(O)c1cc(I)cc(I)c1I [2,3,5-TRIIODOBENZOIC ACID]	3.45	–	–	–	–
[N-]=[N+]=Nc1ccc(C(=O)O)cc1	2.54	–	–	–	–
O=C(O)c1ccc2ccccc2c1 [BETA-NAPHTOIC ACID]	2.78	–	–	–	Log LD50: -1.92
O=C(O)c1cccc2ccccc12 [NAPHTHOIC ACID]	2.98	–	–	–	Log LD50: -1.46
O=C(O)c1ccc(F)cc1	2.05	–	–	1.27	Log LD50: -1.85
COc1ccc(C(=O)O)cc1 [p-ANISIC ACID]	1.95	1.09	1	-0.66	Log LD50: -1.6
